According to patent US20070224167A1, “Novel HCV inhibitor combinations and methods” (priority 2006, published 2007):

Experiments:
[1] = system: HCV 1a H77 replicon; assay: Intracellular antiviral activity in HCV replicon, genotype 1a; format: cell-based, HCV genotype 1a; details: Hepatitis C virus, 72 h, read-out: HCV RNA EC50
Protocol: HCV genotype 1b, BB7 replicon-containing cell line is derived from a human hepatoma cell line (Huh7). A genotype 1a (H77 isolate; GenBank Accession #AF009606) is derived from replicon-containing cell line (Huh7-1a). The cell lines are cultured at 37° C. and 5% CO2 in Dulbecco's Modified Eagle Media (D-MEM; Invitrogen #11965-084) containing 10% fetal bovine serum (FBS; HyClone #SH300070) supplemented with 1% penicillin/streptomycin (Invitrogen #15140-122), 1% non-essential amino acids (Invitrogen #11140-050), 0.66 mM HEPES buffer, pH 7.55 (Invitrogen #15630-080), and 1 mg/mL G418 (Geneticin®, Invitrogen #11811-031 or #10131-027). […]
(§1) At the end of the incubation period, the replicon-containing cells are lysed in 150 μL of lysis buffer provided in the RNeasy 96 Kit (Qiagen #74181). […] For duplexed RT-PCR quantifying both HCV RNA and 18S rRNA, 0.08 μM rRNA forward primer, 0.1 μM rRNA reverse primer, and 0.2 μM rRNA probe are added (ABI #4308329). […]
The amounts of the HCV and 18S ribosomal RNAs in each sample are estimated by comparing the Ct cycles with those in the corresponding standard curves. […] The total RNA that is used for preparing the standard curve of the rRNA is quantified by O.D.260 measurement. Compound dose response is measured in a 10-point, 3-fold serial dilution series performed in triplicates and subjected to the same corresponding RT-PCR conditions as described above. […]

[2] = system: HCV replicon cells (Huh-7 cells); assay: Inhibition of replicon RNA levels (3-day assay, Taqman); format: cell-based; details: Hepatitis C virus
Protocol: Replicon cells are seeded at ˜5000 cells/well in 96-well collagen I-coated Biocoat plates (Becton Dickinson). Twenty-four hrs post-seeding, inhibitors diluted in DMSO are added to replicon cells (Huh-7 cells). The final concentrations of DMSO and fetal bovine serum are 1% and 10%, respectively. SCH 503034 is serially diluted at 1:2 for a 10-point titration. To each concentration of the SCH 503034, the second inhibitor, HCV-796 or rhIFN-α2b control is titrated in. IFN-α is serially diluted at 1:3, whereas HCV RNA polymerase inhibitor, HCV-796, is serially diluted at 1:2. […] All samples are tested in triplicate. Media and inhibitors are refreshed daily for 3 days at which point the cells are washed with PBS and lysed in 1× cell lysis buffer (Ambion cat #8721). The replicon RNA level is measured using real time PCR (Taqman assay) The amplicon is located in 5B. The PCR primers are: 5B.2F, […] (SEQ ID NO:1) and 5B.2R, […] (SEQ ID NO:2). The probe sequence is FAM-labeled […] (SEQ ID NO:3). GAPDH RNA is used as an endogenous control and is amplified in the same reaction as NS5B (multiplex PCR) using primers and VIC-labeled probe recommended by the manufacturer (PE Applied Biosystem). The real-time RT-PCR reactions are run on an AB1 PRISM 7900HT Sequence Detection System using the following program: 48° C. for 30 min, 95° C. for 10 min, 40 cycles of 95° C. for 15 sec, […] for 1 min. […]

[3] = system: HCV 1b BB7 replicon; assay: Intracellular antiviral activity in HCV replicon, genotype 1b; format: cell-based, HCV genotype 1b; details: for EC50: Hepatitis C virus, 72 h, read-out: HCV RNA EC50
Protocol: HCV genotype 1b, BB7 replicon-containing cell line is derived from a human hepatoma cell line (Huh7). A genotype 1a (H77 isolate; GenBank Accession #AF009606) is derived from replicon-containing cell line (Huh7-1a). The cell lines are cultured at 37° C. and 5% CO2 in Dulbecco's Modified Eagle Media (D-MEM; Invitrogen #11965-084) containing 10% fetal bovine serum (FBS; HyClone #SH300070) supplemented with 1% penicillin/streptomycin (Invitrogen #15140-122), 1% non-essential amino acids (Invitrogen #11140-050), 0.66 mM HEPES buffer, pH 7.55 (Invitrogen #15630-080), and 1 mg/mL G418 (Geneticin®, Invitrogen #11811-031 or #10131-027). Genotype 1a and genotype 1b replicon-containing cell lines contain approximately 1000 and 2000 RNA genome equivalents per cell, respectively, when maintained in a subconfluent monolayer in the presence of 1 mg/mL G418. For compound testing, G418 is eliminated and the FBS concentration is reduced to 2%.
as §1, with “#74181). Total cellular RNA is extracted according to the manufacturer's protocol and eluted in 150 μL of nuclease-free water.” for “#74181).”
The amounts of the HCV and 18S ribosomal RNAs in each sample are estimated by comparing the Ct cycles with those in the corresponding standard curves. […] The total RNA that is used for preparing the standard curve of the rRNA is quantified by O.D.260 measurement. Compound dose response is measured in a 10-point, 3-fold serial dilution series performed in triplicates and subjected to the same corresponding RT-PCR conditions as described above. […] The amounts of HCV are expressed as HCV RNA copies and μg total RNA using rRNA as the surrogate marker for the quantification. […]

SMILES | EC50 [1] | IC90 [2] | EC50 [3] | Difference in EC50, changing media daily vs. single dose in 3 days ([3]; replicon, 3 days)
CNC(=O)c1c(-c2ccc(F)cc2)oc2cc(N(CCO)S(C)(=O)=O)c(C3CC3)cc12 [HCV-796, 5-cyclopropyl-2-(4-fluoro-phenyl)-6-[(2-hydroxy-ethyl)-methanesulfonyl-amino]-benzofuran-3-carboxylic acid methylamide] | 2.5 ± 1.7 nM | 30 nM | 1.1 ± 0.2 nM | 
CC(C)(C)NC(=O)N[C@H](C(=O)N1C[C@H]2[C@@H]([C@H]1C(=O)NC(CC1CCC1)C(=O)C(N)=O)C2(C)C)C(C)(C)C (stereo partly drawn) [SCH 503034, (1R,5S)—N-[3-amino-1-(cyclobutylmethyl)-2,3-dioxopropyl]-3-[2(S)-[[[(1,1-dimethylethyl)amino]carbonyl]amino]-3,3-dimethyl-1-oxobutyl]-6,6-dimethyl-3-azabicyclo[3.1.0]hexan-2(S)-carboxamide] | 188 ± 18 nM | 400 nM | 268 ± 29 nM | No difference in EC50
